Laboratory results reported in patent US20220030866A1, “CONJUGATES OF AUXIN ANALOGS” (The State of Israel, Ministry of Agriculture & Rural …, priority 2019, published 2022).

Key:
Format in all cases: in vivo
DR5:venus marker = test: auxin activity by DR5:venus fluorescence in Arabidopsis plants; settings: 10 μM
How it was run: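 Arabidopsis seedlings expressing nuclear DR5:venus, grown four days on MS medium, then transferred to plates with 10 μM compound for 24 h. Nuclear fluorescence imaged by confocal microscopy and averaged per segmented nucleus as auxin-activity readout; MS medium served as negative control.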

Arabidopsis seedlings [1] = test: adventitious root formation in intact etiolated Arabidopsis seedlings; settings: intact etiolated seedlings; 50 nM, FIG. 17 legend 10 μM for one hour
Experimental: Adventitious roots (ARs) were induced in intact plants, using previously described procedures [Gutierrez et al., Plant Cell 2009, 21:3119-3132; Abu-Abied et al., Plant J 2012, 71:787-799; Rasmussen et al., Plant Physiol 2012, 158:1976-1987]. Briefly, seeds were germinated on MS/0.8% agar plates supplemented with 3% sucrose. The plates were kept in the dark for 2 days at 4° C., then 5 days at 22° C. in the dark, 2 days in the light, 3 days in the dark and then additional 4 days in the light to complete 2 weeks when roots were counted using a stereoscope. Sensitivity to auxin and/or auxin analogs was determined by following root elongation on vertical plates. The 4-day-old seedlings were transferred to MS plates containing 0.05 or 0.5 μM IAA and the root length was measured after 5 days, including the number of LRs in each root and calculation of the LR density. Each treatment experiment included 10-15 plants and was repeated 3 times.
In a third assay utilizing an Arabidopsis model, induction of adventitious root AR formation in intact plants was examined in the presence of 50 nM of tested compounds, which included 5 days incubation in the dark, followed by a shift to the light, according to procedures described by Sorin et al. [Plant Cell 2005, 17:1343-1359].
Conjugates prepared as described herein were evaluated in an Arabidopsis rooting model, according to procedures such as described hereinabove. Seeds were germinated and kept in the dark for 4 days. The etiolated seedlings were then incubated for 1 hour in 10 μM of each compound and then transferred to vertical MS medium-containing plates.

mung bean cuttings = test: rooting of mung bean cuttings (number of adventitious roots per cutting); settings: for effect on AR formation in mung bean cuttings, in words: tested at 2, 10 or 50 μM
How it was run: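 Readout was the number of adventitious roots per cutting in mung bean cuttings. Conjugates of 4-CPA, MCPA and 2-DP were tested alongside unconjugated IBA and 2-DP–glycine methyl ester.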

Arabidopsis seedlings [2] = test: root elongation inhibition in Arabidopsis seedlings; settings: for effect on root elongation relative to control, in words: after 5 days
[3] = test system: cuttings from mature Eucalyptus grandis trees; test: rooting of cuttings from mature Eucalyptus grandis trees; settings: for appearance of the roots compared with IBA alone: 6000 ppm IBA with 100 μM compound
How it was run: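 Cuttings (12-15 cm, two upper leaves halved) from branches of 8-year-old net-house plants; bases dipped 1 min in 6000 ppm IBA potassium salt plus 50 μM conjugate, leaves sprayed with 50 μM conjugate in 0.5% Triton X-100. Rooted at 25° C, 90% humidity, peat:vermiculite:polystyrene 1:2:3; rooting scored after 30-60 days.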

[4] = IBA with 100 μM compound, submersion and spraying
[5] = 4 day old seedlings, 5 days on vertical plates

SMILES | DR5 fluorescence (auxin activity), in words (DR5:venus marker) | adventitious roots formed on average (Arabidopsis seedlings [1]) | effect on AR formation in mung bean cuttings, in words (mung bean cuttings) | effect on root elongation relative to control, in words (Arabidopsis seedlings [2]; 50 nM) | appearance of the roots compared with IBA alone ([3]; submersion and spraying) | effect on root tip and root elongation zone (DR5:venus marker) | time course of root elongation inhibition (Arabidopsis seedlings [2]; 50 nM, slight inhibition until day 3, complete from day 4) | percentage of adventitious root formation (rooting) ([3]; 6000 ppm IBA and 100 μM conjugate by submersion of base plus spraying of foliage) [%] | number of root tips compared with IBA alone (WinRHIZO) [3, 4] | total root length compared with IBA alone (WinRHIZO) [3, 4] | potency in promoting DR5 fluorescence relative to Compound 1t (DR5:venus marker; fluorescent intensity) | appearance of the base of mung bean cuttings (mung bean cuttings; FIGS. 4A, 4B) | concentration that inhibited root elongation significantly (Arabidopsis seedlings [2]; [5]) [nM] | concentration that inhibited root elongation totally (Arabidopsis seedlings [2]; [5]) [nM]
COC(=O)[C@@H](Cc1c[nH]c2ccccc12)NC(=O)COc1ccc(Cl)cc1 [Compound 1s, 4-CPA-D-Trp] | significantly lower fluorescence | 0.5±0.3 | induced rooting to a degree positively correlated with concentration | did not affect root elongation | appeared more branched | – | – | – | – | – | – | – | – | –
COC(=O)[C@H](Cc1c[nH]c2ccccc12)NC(=O)COc1ccc(Cl)cc1 [Compound 1t, 4-CPA-L-Trp] | the most potent conjugate | 4.7±0.9 | induced rooting only at low concentrations | inhibited root elongation relative to control | appeared more branched | loss of auxin activity at the root tip, and swelling of the root elongation zone | biphasic behavior | 51±7 | considerably enhanced the number of root tips | considerably enhanced the total root length | – | – | – | –
O=C(O)COc1ccc(Cl)cc1 [Compound 4-CPA, 4-chloro-phenoxyacetic acid, reference compound] | promoted fluorescence most strongly | 0.8±0.4 | induced a similar rooting rate only at the lowest tested concentration of 2 μM | – | – | loss of auxin activity at the root tip, and swelling of the root elongation zone | – | – | – | – | about 2 fold | appeared swollen, but no AR developed | 50 | 100
